Test results published in the NIST ThermoML archive (doi:10.1016/j.jct.2016.12.033).
± gives the expanded uncertainty stated by the source.

Test: mn = molality of the nth substance listed, in mol/kg
Settings: 101.3 kPa, Liquid; for viscosity: Capillary tube (Ostwald / Ubbelohde) method; for mass density: Pycnometric method

Molecule `Cc1ncc(C[n+]2csc(CCO)c2C)c(N)n1.Cl.[Cl-]` [thiamine hydrochloride] + O has a viscosity (275.15 K, m1 = 0.0101) of 1.692 ± 0.035 mPa·s, a viscosity (275.15 K, m1 = 0.0201) of 1.7 ± 0.035 mPa·s and a viscosity (275.15 K, m1 = 0.0249) of 1.712 ± 0.036 mPa·s. For the same molecule, the viscosity (275.15 K, m1 = 0.0302) was 1.718 ± 0.036 mPa·s, the viscosity (275.15 K, m1 = 0.04) was 1.728 ± 0.036 mPa·s and the viscosity (275.15 K, m1 = 0.0451) was 1.736 ± 0.036 mPa·s. For the same molecule, the viscosity (275.15 K, m1 = 0.0499) was 1.745 ± 0.036 mPa·s, the viscosity (275.15 K, m1 = 0.055) was 1.752 ± 0.036 mPa·s and the viscosity (275.15 K, m1 = 0.0611) was 1.759 ± 0.036 mPa·s. The viscosity (275.15 K, m1 = 0.0645) was 1.76 ± 0.036 mPa·s, the viscosity (275.15 K, m1 = 0.0701) was 1.771 ± 0.037 mPa·s and the viscosity (275.15 K, m1 = 0.0751) was 1.776 ± 0.037 mPa·s. For the same molecule, the viscosity (275.15 K, m1 = 0.0792) was 1.776 ± 0.037 mPa·s, the viscosity (275.15 K, m1 = 0.0897) was 1.788 ± 0.037 mPa·s and the viscosity (275.15 K, m1 = 0.1001) was 1.8 ± 0.037 mPa·s. For the same molecule, the mass density (275.15 K, m1 = 0.0101) was 1001.03 ± 0.29 kg/m3, the mass density (275.15 K, m1 = 0.0201) was 1002.1 ± 0.29 kg/m3 and the mass density (275.15 K, m1 = 0.0249) was 1002.6 ± 0.29 kg/m3. For the same molecule, the mass density (275.15 K, m1 = 0.0302) was 1003.15 ± 0.29 kg/m3, the mass density (275.15 K, m1 = 0.04) was 1004.19 ± 0.29 kg/m3 and the mass density (275.15 K, m1 = 0.0451) was 1004.73 ± 0.29 kg/m3. It also gave a mass density (275.15 K, m1 = 0.0499) of 1005.24 ± 0.29 kg/m3, a mass density (275.15 K, m1 = 0.055) of 1005.78 ± 0.29 kg/m3 and a mass density (275.15 K, m1 = 0.0611) of 1006.45 ± 0.29 kg/m3. For the same molecule, the mass density (275.15 K, m1 = 0.0645) was 1006.81 ± 0.29 kg/m3, the mass density (275.15 K, m1 = 0.0701) was 1007.4 ± 0.29 kg/m3 and the mass density (275.15 K, m1 = 0.0751) was 1007.91 ± 0.29 kg/m3. The mass density (275.15 K, m1 = 0.0792) was 1008.33 ± 0.29 kg/m3, the mass density (275.15 K, m1 = 0.0897) was 1009.33 ± 0.29 kg/m3 and the mass density (275.15 K, m1 = 0.1001) was 1010.2 ± 0.29 kg/m3. The viscosity (277.15 K, m1 = 0.0101) was 1.575 ± 0.033 mPa·s, the viscosity (277.15 K, m1 = 0.0201) was 1.591 ± 0.033 mPa·s and the viscosity (277.15 K, m1 = 0.025) was 1.593 ± 0.033 mPa·s. It also gave a viscosity (277.15 K, m1 = 0.0299) of 1.604 ± 0.033 mPa·s, a viscosity (277.15 K, m1 = 0.0401) of 1.61 ± 0.033 mPa·s and a viscosity (277.15 K, m1 = 0.0452) of 1.621 ± 0.034 mPa·s. It also gave a viscosity (277.15 K, m1 = 0.0501) of 1.627 ± 0.034 mPa·s, a viscosity (277.15 K, m1 = 0.055) of 1.632 ± 0.034 mPa·s and a viscosity (277.15 K, m1 = 0.0598) of 1.64 ± 0.034 mPa·s. The viscosity (277.15 K, m1 = 0.0653) was 1.646 ± 0.034 mPa·s, the viscosity (277.15 K, m1 = 0.0704) was 1.66 ± 0.034 mPa·s and the viscosity (277.15 K, m1 = 0.0803) was 1.672 ± 0.035 mPa·s. The viscosity (277.15 K, m1 = 0.0822) was 1.671 ± 0.035 mPa·s, the viscosity (277.15 K, m1 = 0.0898) was 1.678 ± 0.035 mPa·s and the mass density (277.15 K, m1 = 0.0101) was 1001.04 ± 0.28 kg/m3. For the same molecule, the mass density (277.15 K, m1 = 0.0201) was 1002.1 ± 0.28 kg/m3, the mass density (277.15 K, m1 = 0.025) was 1002.61 ± 0.28 kg/m3 and the mass density (277.15 K, m1 = 0.0299) was 1003.12 ± 0.28 kg/m3. It also gave a mass density (277.15 K, m1 = 0.0401) of 1004.18 ± 0.28 kg/m3, a mass density (277.15 K, m1 = 0.0452) of 1004.7 ± 0.28 kg/m3 and a mass density (277.15 K, m1 = 0.0501) of 1005.2 ± 0.28 kg/m3. The mass density (277.15 K, m1 = 0.055) was 1005.69 ± 0.28 kg/m3, the mass density (277.15 K, m1 = 0.0598) was 1006.18 ± 0.28 kg/m3 and the mass density (277.15 K, m1 = 0.0653) was 1006.74 ± 0.28 kg/m3. For the same molecule, the mass density (277.15 K, m1 = 0.0704) was 1007.25 ± 0.28 kg/m3, the mass density (277.15 K, m1 = 0.0803) was 1008.25 ± 0.28 kg/m3 and the mass density (277.15 K, m1 = 0.0822) was 1008.45 ± 0.28 kg/m3. The mass density (277.15 K, m1 = 0.0898) was 1009.24 ± 0.28 kg/m3, the viscosity (279.15 K, m1 = 0.008) was 1.481 ± 0.031 mPa·s and the viscosity (279.15 K, m1 = 0.02) was 1.494 ± 0.031 mPa·s. It also gave a viscosity (279.15 K, m1 = 0.0249) of 1.497 ± 0.031 mPa·s, a viscosity (279.15 K, m1 = 0.0301) of 1.505 ± 0.031 mPa·s and a viscosity (279.15 K, m1 = 0.04) of 1.512 ± 0.031 mPa·s. The viscosity (279.15 K, m1 = 0.045) was 1.517 ± 0.032 mPa·s, the viscosity (279.15 K, m1 = 0.0501) was 1.521 ± 0.032 mPa·s and the viscosity (279.15 K, m1 = 0.0552) was 1.527 ± 0.032 mPa·s. It also gave a viscosity (279.15 K, m1 = 0.0603) of 1.529 ± 0.032 mPa·s, a viscosity (279.15 K, m1 = 0.0652) of 1.542 ± 0.032 mPa·s and a viscosity (279.15 K, m1 = 0.0703) of 1.549 ± 0.032 mPa·s. The viscosity (279.15 K, m1 = 0.0751) was 1.556 ± 0.032 mPa·s, the viscosity (279.15 K, m1 = 0.0798) was 1.563 ± 0.032 mPa·s and the viscosity (279.15 K, m1 = 0.0897) was 1.57 ± 0.033 mPa·s. The viscosity (279.15 K, m1 = 0.1001) was 1.581 ± 0.033 mPa·s, the mass density (279.15 K, m1 = 0.008) was 1000.76 ± 0.28 kg/m3 and the mass density (279.15 K, m1 = 0.02) was 1002 ± 0.28 kg/m3. For the same molecule, the mass density (279.15 K, m1 = 0.0249) was 1002.52 ± 0.28 kg/m3, the mass density (279.15 K, m1 = 0.0301) was 1003.05 ± 0.28 kg/m3 and the mass density (279.15 K, m1 = 0.04) was 1004.08 ± 0.28 kg/m3. It also gave a mass density (279.15 K, m1 = 0.045) of 1004.59 ± 0.28 kg/m3, a mass density (279.15 K, m1 = 0.0501) of 1005.11 ± 0.28 kg/m3 and a mass density (279.15 K, m1 = 0.0552) of 1005.63 ± 0.28 kg/m3. The mass density (279.15 K, m1 = 0.0603) was 1006.15 ± 0.28 kg/m3, the mass density (279.15 K, m1 = 0.0652) was 1006.65 ± 0.28 kg/m3 and the mass density (279.15 K, m1 = 0.0703) was 1007.16 ± 0.28 kg/m3. It also gave a mass density (279.15 K, m1 = 0.0751) of 1007.64 ± 0.28 kg/m3, a mass density (279.15 K, m1 = 0.0798) of 1008.1 ± 0.28 kg/m3 and a mass density (279.15 K, m1 = 0.0897) of 1009.09 ± 0.28 kg/m3. For the same molecule, the mass density (279.15 K, m1 = 0.1001) was 1010.12 ± 0.28 kg/m3.
